Results as given in article PMC3810402 (Journal of the American Chemical Society, 2008).

Experiments:
HCT116-p53+/+ cells = experiment: MTS cell viability assay, HCT116; type: cell-based; details: single dose, 10 μg/mL, positive control
SW480 cells (mutant p53) = experiment: Tumor-killing activity by Trypan blue cell count, SW480; type: cell-based; details: added daily, 10 μg/mL

COc1ccc(C2=N[C@@H](c3ccc(Cl)cc3)[C@@H](c3ccc(Cl)cc3)N2C(=O)N2CCNC(=O)C2)c(OC(C)C)c1 [Nutlin-3] was tested, and the “HCT116 cell viability (MTS)” value (HCT116-p53+/+ cells) was “a reduction in HCT116 cell viability” and the “effectiveness against SW480” value (SW480 cells (mutant p53)) was “ineffective”.
